{"source": "paper PMC12194305", "about": "“Assessing Bioconcentration and Biotransformation of BDE-47 In Vitro: The Relevance of Bioavailable and Intracellular Concentrations” (Journal of Xenobiotics, 2025)", "key": {"HepG2 cells": {"test_system": "HepG2 cells", "design": "method as in PMID 37289209", "details": "HepG2 cells 48 h, 20 mg·L^−1 BDE-47, calculated with estimated Cfree percentage, cited from earlier work"}, "ZFL cells [1]": {"test_system": "ZFL cells", "assay": "Biotransformation of BDE-47 in ZFL cells (metabolites in cells and medium)"}, "[2]": {"design": "method as in PMID 36264934", "details": "dialysis, DMEM + 10% newborn calf serum, Cnom 5 μmol·L^−1, 1% DMSO; cited from earlier work"}, "[3]": {"test_system": "zebrafish eleutheroembryos", "design": "method as in PMID 36705440", "details": "zebrafish embryos 48 h, larvae samples; cited from earlier work"}, "ZFL cells [4]": {"test_system": "ZFL cells", "design": "method as in PMID 39103099", "details": "exposure to 10 mg·L^−1 PHE, previous study; cited from earlier work"}, "ZFL cells [5]": {"test_system": "ZFL cells", "details": "cited from earlier work; for Ratio MBM/experimental of internal concentration: ref De Oro-Carretero and Sanz-Landaluze 2024"}, "[6]": {"assay": "Experimental determination of free bioavailable concentration (Cfree,exp) in exposure medium by SPME", "assay_type": "in vitro ADME", "details": "for Cfree, exp: 24–48 h", "description": "In parallel with the exposure experiment for the evaluation of bioaccumulation and biotransformation described in the previous sections, an experiment was performed to estimate experimentally the free bioavailable concentration (Cfree,exp) in the test medium. For this purpose, an experiment was designed to simulate the test conditions, and Cfree was determined using solid-phase microextraction (SPME), following the fiber method developed by Henneberger et al..\nPDMS-coated glass microfibers (30 µm thick, 13.19 µL/m coating volume) were cut into 1.5 cm pieces and cleaned in methanol for more than 24 h prior to the experiment, with the solvent replaced at least three times. The cleaned and dried fiber was placed in a glass vial with 1 mL of sample exposure medium containing 1.8 and 2.6 mg·L^−1 BDE-47. Three replicates were prepared for each condition. A portion of the initial sample was stored at −20 °C until analysis. The vials were then sealed and incubated with rotation at 28 °C for 72 h until equilibrium of BDE-47 distribution among the fiber, medium, and binding to the predominant serum protein of the culture (Bovine serum albumin, BSA) was reached. Once at equilibrium, the fibers were extracted from the vials and desorbed with 400 µL isooctane for 24 h with rotation. Finally, the extract was analyzed by GC-MS-µECD, as described in Section 2.5. The concentration of BDE-47 in the initial sample (Cmed,0h) and in the resulting media after equilibration (Cmed,eq) was determined according to the procedure described in Section 2.5, to confirm the actual mass balance.\nSince this study evaluates and discusses the behavior of BDE-47 in comparison to observations from a previous study with phenanthrene, as explained in the introduction section, the experimental Cfree of phenanthrene was also determined, as it had not been measured previously. In this case, the difference in the process was that PA fibers (36 µm thick, 16.71 µL/m coating volume) were used. Samples of 10 and 20 mg·L^−1 PHE were prepared, and the fibers and samples were incubated for 24–48 h until equilibrium was reached, and desorbed with hexane for 3 h.\nTo determine the free concentration, concentration in the SPME fiber (Cfiber) was first estimated using Equation (1) from the concentration measured in the desorption extract (Cdes), the desorption volume (Vdes) and the coating volume of the fiber (Vfiber). This volume was estimated according to the coating volume and the length of the fiber.(1) Cfiber=Cdes·Vdes/Vfiber\nNext, Cfree,exp was determined at the time before the SPME fiber was added to the system, according to Equation (2). For this, the concentration measured in the fiber equilibrated with the medium (PDMS-BDE-47-BSA or PA-PHE-BSA), the concentration measured in the initial sample (Cmed,0h), and the partition constant of the equilibrium formed between the fiber and the medium (log DPDMS/medium; BDE-47 = 5.84 [25]; log DPA/medium; PHE = 6.69 [26]) were used.(2) Cfree=Cmed,0h·Vsample/Dfiber/medium·Cmed,0h·Vsample/Cfiber−Vfiber"}, "[7]": {"design": "method as in PMID 39103099", "details": "binding constant to BSA protein of FBS; cited from earlier work"}, "[8]": {"details": "partition constant PA fiber/medium; cited from earlier work"}}, "note": "“And” between values parts separate entries of the source, which are not always exact repeats. Equal values may be shown once. Read-outs that look alike come from different tables or passages of the source.", "data": [{"smiles": "Oc1cc(Oc2ccc(Br)cc2Br)c(Br)cc1Br", "note": "[5-OH, 5-OH-BDE-47]", "values": [{"measurement": "biotransformation ratio metabolite / BDE-47 concentration", "setting": "HepG2 cells; medium samples", "result": 0.2}]}, {"smiles": "Oc1c(Br)ccc(Oc2ccc(Br)cc2Br)c1Br", "note": "[3-OH, 3-OH-BDE-47]", "values": [{"measurement": "biotransformation ratio metabolite / BDE-47 concentration", "setting": "HepG2 cells; medium samples", "result": 0.13}, {"measurement": "biotransformation ratio metabolite / free bioavailable BDE-47 concentration", "setting": "ZFL cells [1]; medium samples, 24 h, Cnominal BDE-47 1.6 mg·L^−1", "result": 0.07}, {"measurement": "biotransformation ratio metabolite / free bioavailable BDE-47 concentration", "setting": "ZFL cells [1]; medium samples, 24 h, Cnominal BDE-47 2.8 mg·L^−1", "result": 0.08}, {"measurement": "biotransformation ratio metabolite / free bioavailable BDE-47 concentration", "setting": "ZFL cells [1]; medium samples, 48 h, Cnominal BDE-47 1.6 mg·L^−1", "result": 0.08}, {"measurement": "biotransformation ratio metabolite / free bioavailable BDE-47 concentration", "setting": "ZFL cells [1]; medium samples, 48 h, Cnominal BDE-47 2.8 mg·L^−1", "result": 0.08}, {"measurement": "biotransformation ratio metabolite / free bioavailable BDE-47 concentration", "setting": "ZFL cells [1]; medium samples, 72 h, Cnominal BDE-47 1.6 mg·L^−1", "result": 0.09}, {"measurement": "biotransformation ratio metabolite / free bioavailable BDE-47 concentration", "setting": "ZFL cells [1]; medium samples, 72 h, Cnominal BDE-47 2.8 mg·L^−1", "result": 0.15}]}, {"smiles": "CC/C(=C(\\c1ccccc1)c1ccc(OCCN(C)C)cc1)c1ccccc1", "note": "[tamoxifen]", "values": [{"measurement": "decrease of free concentration from the initial concentration", "setting": "[2]", "result": "up to 50%"}]}, {"smiles": "Oc1cc(Br)ccc1Oc1ccc(Br)cc1Br", "note": "[2′-OH-BDE-28]", "values": [{"measurement": "detection of the metabolite in ZFL cell and medium samples on exposure to BDE-47", "setting": "ZFL cells [1]; BDE-47 at 1.6 and 2.8 mg·L^−1, 24–72 h", "result": "significant and increasing concentration over time"}]}, {"smiles": "COc1cc(Oc2ccc(Br)cc2Br)c(Br)cc1Br", "note": "[5-MeO, 5-MeO-BDE-47]", "values": [{"measurement": "biotransformation ratio metabolite / BDE-47 concentration", "setting": "HepG2 cells; cell samples", "result": 0.10}, {"measurement": "biotransformation ratio metabolite / free bioavailable BDE-47 concentration", "setting": "ZFL cells [1]; cell samples, 24 h, Cnominal BDE-47 1.6 mg·L^−1", "result": 0.11}, {"measurement": "biotransformation ratio metabolite / free bioavailable BDE-47 concentration", "setting": "ZFL cells [1]; cell samples, 24 h, Cnominal BDE-47 2.8 mg·L^−1", "result": 0.17}, {"measurement": "biotransformation ratio metabolite / free bioavailable BDE-47 concentration", "setting": "ZFL cells [1]; cell samples, 48 h, Cnominal BDE-47 1.6 mg·L^−1", "result": 0.12}, {"measurement": "biotransformation ratio metabolite / free bioavailable BDE-47 concentration", "setting": "ZFL cells [1]; cell samples, 48 h, Cnominal BDE-47 2.8 mg·L^−1", "result": 0.18}, {"measurement": "biotransformation ratio metabolite / free bioavailable BDE-47 concentration", "setting": "ZFL cells [1]; cell samples, 72 h, Cnominal BDE-47 1.6 mg·L^−1", "result": 0.15}, {"measurement": "biotransformation ratio metabolite / free bioavailable BDE-47 concentration", "setting": "ZFL cells [1]; cell samples, 72 h, Cnominal BDE-47 2.8 mg·L^−1", "result": 0.20}, {"measurement": "biotransformation ratio metabolite / BDE-47 concentration", "setting": "[3]", "result": "0.06–0.13"}]}, {"smiles": "c1ccc2c(c1)ccc1ccccc12", "note": "[PHE, phenanthrene]", "values": [{"measurement": "BCF48 h", "setting": "ZFL cells [4]", "result": 393, "unit": "L/kg"}, {"measurement": "BCFk", "setting": "ZFL cells [4]", "result": 986, "unit": "L/kg"}, {"measurement": "Ratio MBM/experimental of internal concentration", "setting": "ZFL cells [5]; 24h, 10 mg·L-1, ZFL cells", "result": 491, "unit": "%"}, {"measurement": "Ratio MBM/experimental of internal concentration", "setting": "ZFL cells [5]; 24h, 50 mg·L-1, ZFL cells", "result": 510, "unit": "%"}, {"measurement": "Ratio MBM/experimental of internal concentration", "setting": "ZFL cells [5]; 48h, 10 mg·L-1, ZFL cells", "result": 532, "unit": "%"}, {"measurement": "Ratio MBM/experimental of internal concentration", "setting": "ZFL cells [5]; 48h, 50 mg·L-1, ZFL cells", "result": 449, "unit": "%"}, {"measurement": "Ratio MBM/experimental of internal concentration", "setting": "ZFL cells [5]; 72h, 10 mg·L-1, ZFL cells", "result": 421, "unit": "%"}, {"measurement": "Ratio MBM/experimental of internal concentration", "setting": "ZFL cells [5]; 72h, 50 mg·L-1, ZFL cells", "result": 402, "unit": "%"}, {"measurement": "BCFMBM", "setting": "ZFL cells [5]; ZFL cells, previous study", "result": 1656, "unit": "L/kg"}, {"measurement": "ratio of MBM vs. experimental Ccell", "setting": "ZFL cells [5]; ZFL cells, previous study", "result": "above 100%"}, {"measurement": "free concentration as % of total concentration", "setting": "ZFL cells [5]; assays with ZFL cells, previous study", "result": 1.7, "unit": "%"}, {"measurement": "% Cfree, exp", "setting": "[6]; Cnom 10 mg·L^−1, % of total concentration", "result": "2.4% and 2.4 ± 0.2%"}, {"measurement": "Cfree, exp", "setting": "[6]; Cnom 10 mg·L^−1, PA fiber", "result": "(0.22 ± 0.02) mg·L^−1"}, {"measurement": "% Cfree, exp", "setting": "[6]; Cnom 20 mg·L^−1, % of total concentration", "result": "2.9% and 2.9 ± 0.2%"}, {"measurement": "Cfree, exp", "setting": "[6]; Cnom 20 mg·L^−1, PA fiber", "result": "(0.52 ± 0.04) mg·L^−1"}, {"measurement": "log DBSA/W", "setting": "[7]", "result": 3.81}, {"measurement": "log DPA/medium", "setting": "[8]", "result": 6.69}]}]}
